Assay results from patent publication US20190070170A1, “METHOD OF S[…]-1” (Macau University of Science and Technology, priority 2017, published 2019).

Key:
NO [1] = test: NO production in LPS-stimulated RAW264.7 cells (Griess reagent); format: cell-based, mouse; conditions: pretreatment 1 h, LPS 100 ng/ml 18 h
Method: (§1) RAW264.7 and A549 cell lines were obtained from American Type Culture Collection (ATCC, Manassas, Va., USA) and maintained in DMEM (RAW264.7) or 1640 (A549) medium containing 10% FBS (Gibco-BRL, Grand Island, N.Y., USA) and antibiotics at 37° C. in a humidified atmosphere containing 5% CO2. RAW264.7 cells were plated in 6-well plates at a density of 4×10^5 cells and incubated for 24 h, then the cells were pretreated with different concentrations of SIN for 1 h before stimulating with LPS (100 ng/ml). A549 cells were seeded in 6-well plates at a density of 1×10^5 cells and incubated for 24 h, followed by pretreatment with SIN. A549 cells were then stimulated by IL-1β (1 ng/ml).
(§2) RAW264.7 cells and rat peritoneal macrophages were seeded in a 96-well plate at density of 1.4×10^4 and 1.5×10^5 cells, respectively. Various concentration of SIN was added to the cells for 1 hour before LPS stimulation. After stimulation with LPS for 18 h (RAW264.7 cells) or 24 h (rat peritoneal macrophages), MTT solution was added to each well and incubated for another 4 hours. 100 μl 10% SDS-HCl solution was added to each well for overnight to dissolve the formazan dye. The optical density was measured at 570 nm against a reference wavelength of 650 nm using a microplate UV/VIS spectrophotometer (Tecan, Mannedorf, Switzerland). […]

CREB = CREB pathway (p-CREB) in LPS-stimulated rat peritoneal macrophages (western blotting); format: cell-based; conditions: SIN 1 h, LPS 1 μg/ml 15 min or 1 h
Method: (§3) Sprague-Dawley (SD) rats from the University of Hong Kong were housed in cages with free access to food and water. Peritoneal macrophages of SD rats were isolated as described in Liu J. et al., Pharmacological research 2016, 111:303-315. Briefly, untreated rats were sacrificed and after laparotomy, about 50 ml cold sterile Hank's balanced salt solution (HBSS) was used to lavage the peritoneal cavity at twice, and then the peritoneal lavage fluid was collected and centrifuged at 1500 rpm for 10 min. The cell pellets was suspended at a density 1.5×10^6 cells/ml in pre-hearted DMEM medium with 10% heat-inactivated FBS, penicillin G (100 units/ml), streptomycin ([…]), and L-glutamine (2 mM), followed by seeding in 6-well plates at a density of 4.5×10^6 cells and incubation for 2 h. Then the medium were discarded to remove the non-adherent cells. The adherent cells were further washed for two times with pre-heated DMEM medium to remove floating cells. Next, cells were pre-treated with various concentration of SIN for 1 h, followed by stimulation with LPS (1 μg/ml).
(§4) Whole-cell and nuclear proteins were obtained using RIPA lysis buffer (CST, Boston, Mass., USA) and Nuclear and Cytoplasmic Extraction Reagents kit from Thermo Scientific (Asheville, N.C., USA), respectively. […] The levels of protein expression were measured using Odyssey v3.0 software from Li-COR (Lincoln, Nebr., USA).

IL-6 = IL-6 level in LPS-stimulated rat peritoneal macrophages (ELISA); format: cell-based; conditions: pretreatment 1 h, LPS 1 μg/ml 24 h
Method: as §3
(§5) RAW264.7 cells and rat peritoneal macrophages were seeded in a 96-well plate at density of 1.4×10^4 and 1.5×10^5 cells, respectively. […] The optical density was measured at 570 nm against a reference wavelength of 650 nm using a microplate UV/VIS spectrophotometer (Tecan, Mannedorf, Switzerland). […]

NO [2] = test: NO production in LPS-stimulated rat peritoneal macrophages (Griess reagent); format: cell-based; conditions: pretreatment 1 h, LPS 1 μg/ml 24 h
Method: as §3, §5

TNF-α = TNF-α level in LPS-stimulated RAW264.7 cells (ELISA); format: cell-based, mouse; conditions: pretreatment 1 h, LPS 100 ng/ml 18 h
Method: as §1, §2

[3] = tested on: mitogen-activated protein kinase (MAPK); test: MAPK pathway (p-JNK, p-p38, p-ERK, p-c-Jun) in LPS-stimulated rat peritoneal macrophages (western blotting); format: cell-based; conditions: SIN 1 h, LPS 1 μg/ml 15 min or 1 h
Method: as §3, §4

COC1=C[C@@H]2[C@@H]3Cc4ccc(OC)c(O)c4[C@]2(CCN3C)CC1=O [SIN, sinomenine]
NO production (nitrite) (NO [1]): significantly inhibited
influence on CREB pathway (CREB): No observable effects
IL-6 production (IL-6): significantly inhibited
NO production (nitrite) (NO [2]): significantly inhibited
TNF-α production (TNF-α): significantly inhibited
influence on MAPK pathway [3]: No observable effects
